Measured values from ChEMBL document CHEMBL1201862, “PubChem BioAssay data set” (2004).
The source made the active and inactive calls.

Tests used:
BJ [1] = test: cells; format: functional, cell-based; details: Homo sapiens
[2] = inhibitors of SNCA 5'UTR-driven reporter translation, confirmation, H4 neuroglioma cells, luminescence (AID 1988); format: functional, cell-based
INS1 = test: beta cell apoptosis inhibitors, cytokine rescue, dose response, luminescence, retest (AID 449756); format: functional, cell-based; details: Rattus norvegicus, INS1;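 note: cell death triggered by IL-1 beta plus TNF-alpha plus IFN-gamma mixture; protective hits raise ATP signal compared with cytokine alone wells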
[3] = cytotoxicity in HEK-293T cells, dose response, cytotoxicity control for TCR NF-kB inhibitor project, luminescence, T-cell screen hits (AID 489026); format: functional, cell-based;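 note: cells exposed to compound about 14 hours before the viability readout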
BJ [4] = test: cytotoxicity toward BJ-TERT-LT-ST fibroblasts, dose response, cell-based, RAS-independent, luminescence (AID 1935); format: functional; details: Homo sapiens;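 note: BJ fibroblasts immortalized with TERT plus LT and ST oncogenes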
[5] = NIH-3T3 fibroblast cytotoxicity, dose response, cytotoxicity control, cell-based, fluorescence, Alamar Blue, secondary assay (AID 2327); format: functional;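 note: NIH-3T3 mouse fibroblasts cultured with fluconazole at 8 µg/mL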
[6] = target: NACHT, LRR and PYD domains-containing protein 3 (Homo sapiens, UniProt Q96P20); test: NALP3 inhibitors in yeast, dose response, luminescent (AID 488799); format: functional
BJ [7] = test: cytotoxicity toward BJ-TERT fibroblasts, dose response, cell-based, RAS-independent, luminescence (AID 1933); format: functional; details: Homo sapiens
[8] = inhibitors of firefly luciferase expression or activity, dose response, H4 neuroglioma cells, luminescence (AID 1990); format: functional, cell-based
[9] = C. albicans growth with fluconazole, confirmation, fluorescence, retest (AID 2467); format: functional, cell-based
[10] = target: Mitochondrial peptide methionine sulfoxide reductase (Bos taurus, UniProt P54149); test: Absorbance-based biochemical high throughput dose response assay for activators of Methionine sulfoxide reductase A (MsrA).; format: functional
[11] = Luminescence Cell-Based Dose Response HTS to Identify Inhibitors of 5'UTR Stem-Loop Driven Prion Protein mRNA Translation in H4 Neuroglioblastoma Cells. [Related pubchem assays: 1827 (Project Summary), 1813 (Primary HTS)]; format: functional
[12] = microbe, parasite or virus in culture; format: functional; details: Mycobacterium tuberculosis
[13] = cytotoxicity toward DRD oncogenic fibroblasts, dose response, cell-based, non-viral oncogenic, luminescence (AID 1934); format: functional; details: Homo sapiens
[14] = target: Phosphoethanolamine/phosphocholine phosphatase (Homo sapiens, UniProt Q8TCT1); test: SAR assay for compounds that inhibit PHOSPHO1. [Related pubchem assays (depositor defined):AID1545, AID1565, AID1574]
[15] = target: T1, Mannose-6-phosphate isomerase (Homo sapiens, UniProt P34949); test: Confirmation of compounds inhibiting phosphomannose isomerase (PMI) via a fluorescence intensity assay using a high concentration of mannose 6-phosphate. [Related pubchem assays (depositor defined):AID1209, AID1220, AID1545, AID1553, AID1620]
T1 sequence (P34949 whole entry): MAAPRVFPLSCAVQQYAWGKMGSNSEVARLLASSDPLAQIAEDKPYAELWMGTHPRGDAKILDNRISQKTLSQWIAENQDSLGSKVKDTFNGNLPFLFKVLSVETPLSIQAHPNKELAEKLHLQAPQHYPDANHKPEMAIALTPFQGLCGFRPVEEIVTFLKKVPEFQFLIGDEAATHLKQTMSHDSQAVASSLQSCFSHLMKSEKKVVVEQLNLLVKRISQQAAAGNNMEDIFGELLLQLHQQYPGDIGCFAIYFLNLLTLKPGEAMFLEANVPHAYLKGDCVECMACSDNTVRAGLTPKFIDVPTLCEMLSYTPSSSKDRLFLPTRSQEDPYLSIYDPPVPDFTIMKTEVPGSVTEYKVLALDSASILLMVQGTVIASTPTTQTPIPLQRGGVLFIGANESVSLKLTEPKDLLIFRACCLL

Phosphomannomutase 2 = target: T2, Phosphomannomutase 2 (Homo sapiens, UniProt O15305); test: Counter screen SAR assay for PMM2 inhibitors via a fluorescence intensity assay. [Related pubchem assays (depositor defined):AID1545, AID1574]
T2 sequence (O15305 whole entry): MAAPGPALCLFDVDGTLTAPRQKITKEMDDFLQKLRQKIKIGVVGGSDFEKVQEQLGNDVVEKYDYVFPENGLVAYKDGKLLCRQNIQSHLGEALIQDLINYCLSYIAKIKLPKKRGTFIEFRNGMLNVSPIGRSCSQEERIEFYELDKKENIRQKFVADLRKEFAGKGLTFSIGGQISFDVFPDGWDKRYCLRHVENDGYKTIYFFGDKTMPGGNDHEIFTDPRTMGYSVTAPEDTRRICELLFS

[16] = target: T3, Alkaline phosphatase, tissue-nonspecific isozyme (Homo sapiens, UniProt P05186); test: human TNAP enzyme inhibitors, SAR follow-up, biochemical, luminescent, dose response (AID 1056)
T3 sequence (P05186 whole entry): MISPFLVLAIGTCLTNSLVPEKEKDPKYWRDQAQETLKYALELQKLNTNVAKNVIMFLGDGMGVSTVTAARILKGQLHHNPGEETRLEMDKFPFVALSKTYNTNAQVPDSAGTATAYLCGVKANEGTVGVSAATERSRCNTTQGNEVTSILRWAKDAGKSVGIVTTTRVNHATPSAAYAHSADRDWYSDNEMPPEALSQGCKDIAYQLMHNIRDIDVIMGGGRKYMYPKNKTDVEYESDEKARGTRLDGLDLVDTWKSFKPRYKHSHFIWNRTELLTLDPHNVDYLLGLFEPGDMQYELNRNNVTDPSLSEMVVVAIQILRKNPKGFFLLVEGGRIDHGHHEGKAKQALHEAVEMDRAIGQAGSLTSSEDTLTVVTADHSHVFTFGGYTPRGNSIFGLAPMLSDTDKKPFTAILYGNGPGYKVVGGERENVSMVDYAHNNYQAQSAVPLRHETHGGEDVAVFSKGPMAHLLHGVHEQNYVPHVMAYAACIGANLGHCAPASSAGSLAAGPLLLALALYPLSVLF

[17] = target: T1, Mannose-6-phosphate isomerase; test: PMI enzyme inhibitors, confirmation, biochemical, fluorescence intensity (AID 1535)
J774.A1 = test: Confirmation of image-based Screening Assay for Inhibitors of Phagocytosis. [Related pubchem assays (depositor defined):AID1029, AID1643]; format: functional, cell-based; details: Mus musculus
Cannabinoid receptor 1 [18] = target: T4, Cannabinoid receptor 1 (Homo sapiens, UniProt P21554); test: SAR analysis of antagonists of the Cannabinoid Receptor 1 using an Image-Based Assay - Set 3. [Related pubchem assays (depositor defined):AID1961, AID1965]; format: functional
Cannabinoid receptor 1 [19] = target: T4, Cannabinoid receptor 1; test: SAR analysis of agonists of the Cannabinoid Receptor 1 using an Image-Based Assay - Set 3. [Related pubchem assays (depositor defined):AID1961, AID1965]; format: functional
Cannabinoid receptor 2 [20] = target: T5, Cannabinoid receptor 2 (Homo sapiens, UniProt P34972); test: SAR analysis of antagonists of the Cannabinoid Receptor 2 using an Image-Based Assay - Set 2. [Related pubchem assays (depositor defined):AID1961, AID1965]; format: functional
[21] = target: T6, G-protein coupled receptor 35 (Homo sapiens, UniProt Q9HC97); test: SAR analysis of Antagonists of the GPR35 Receptor using an Image-Based Assay - Set 4. [Related pubchem assays (depositor defined):[…]]; format: functional
[22] = target: G-protein coupled receptor 55 (Homo sapiens, UniProt Q9Y2T6); test: SAR analysis of selective Agonists of GPR55 using an Image-Based Assay - Set 2. [Related pubchem assays (depositor defined):AID1961, AID1965]; format: functional
Cannabinoid receptor 2 [23] = target: T5, Cannabinoid receptor 2; test: SAR analysis of agonists of the Cannabinoid Receptor 2 using an Image-Based Assay - Set 2. [Related pubchem assays (depositor defined):AID1961, AID1965]; format: functional
[24] = target: T6, G-protein coupled receptor 35; test: SAR analysis of Agonists of the GPR35 Receptor using an Image-Based Assay - Set 3. [Related pubchem assays (depositor defined):AID1961, AID1965]; format: functional
[25] = target: T7, Protein phosphatase methylesterase 1 (Homo sapiens, UniProt Q9Y570); test: PME-1 inhibitor potency by in-gel ABPP, dose response, selectivity assay for PME-1 inhibitor project, cell lysate, mouse brain cytosol, FP-rhodamine, panel member PME-1 Assay Panel member description: Inhibition of endogenously expressed PME-1 (AID 2366)
[26] = target: T7, Protein phosphatase methylesterase 1; test: Late stage results from the probe development effort to identify inhibitors of the protein methylesterase PME-1: Gel-based Activity-Based Protein Profiling (ABPP) IC50: Purified enzyme.; format: functional

T6 sequence (Q9HC97 whole entry): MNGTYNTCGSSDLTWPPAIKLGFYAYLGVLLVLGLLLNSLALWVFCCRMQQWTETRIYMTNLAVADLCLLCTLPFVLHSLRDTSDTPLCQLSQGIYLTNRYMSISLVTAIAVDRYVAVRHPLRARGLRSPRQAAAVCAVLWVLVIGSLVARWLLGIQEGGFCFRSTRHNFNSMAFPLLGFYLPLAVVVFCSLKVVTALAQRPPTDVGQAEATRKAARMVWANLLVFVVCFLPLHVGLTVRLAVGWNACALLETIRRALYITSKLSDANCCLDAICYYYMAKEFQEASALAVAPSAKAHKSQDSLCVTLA
T7 sequence (Q9Y570 whole entry): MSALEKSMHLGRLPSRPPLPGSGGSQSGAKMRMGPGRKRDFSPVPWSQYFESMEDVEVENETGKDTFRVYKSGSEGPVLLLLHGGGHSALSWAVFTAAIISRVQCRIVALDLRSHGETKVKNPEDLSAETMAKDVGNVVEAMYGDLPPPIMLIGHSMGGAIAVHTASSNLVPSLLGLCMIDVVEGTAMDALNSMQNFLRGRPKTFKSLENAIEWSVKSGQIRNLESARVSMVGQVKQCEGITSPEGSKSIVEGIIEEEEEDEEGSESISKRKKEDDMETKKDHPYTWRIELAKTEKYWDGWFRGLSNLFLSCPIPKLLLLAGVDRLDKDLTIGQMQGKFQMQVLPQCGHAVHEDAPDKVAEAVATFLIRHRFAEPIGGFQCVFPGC
T4 sequence (P21554 whole entry): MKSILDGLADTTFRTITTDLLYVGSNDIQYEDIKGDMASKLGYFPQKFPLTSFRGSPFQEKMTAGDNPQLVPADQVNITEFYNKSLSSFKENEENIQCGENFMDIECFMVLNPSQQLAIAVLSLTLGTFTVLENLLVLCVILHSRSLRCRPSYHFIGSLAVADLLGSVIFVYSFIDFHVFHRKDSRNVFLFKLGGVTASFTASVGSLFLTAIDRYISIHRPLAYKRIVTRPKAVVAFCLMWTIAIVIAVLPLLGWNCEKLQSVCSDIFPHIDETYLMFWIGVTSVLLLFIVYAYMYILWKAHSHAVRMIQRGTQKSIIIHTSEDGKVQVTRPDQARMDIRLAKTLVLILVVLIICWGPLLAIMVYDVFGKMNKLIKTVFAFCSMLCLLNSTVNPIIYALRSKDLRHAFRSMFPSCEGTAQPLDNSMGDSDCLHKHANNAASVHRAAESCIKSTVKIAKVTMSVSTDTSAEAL
T5 sequence (P34972 whole entry): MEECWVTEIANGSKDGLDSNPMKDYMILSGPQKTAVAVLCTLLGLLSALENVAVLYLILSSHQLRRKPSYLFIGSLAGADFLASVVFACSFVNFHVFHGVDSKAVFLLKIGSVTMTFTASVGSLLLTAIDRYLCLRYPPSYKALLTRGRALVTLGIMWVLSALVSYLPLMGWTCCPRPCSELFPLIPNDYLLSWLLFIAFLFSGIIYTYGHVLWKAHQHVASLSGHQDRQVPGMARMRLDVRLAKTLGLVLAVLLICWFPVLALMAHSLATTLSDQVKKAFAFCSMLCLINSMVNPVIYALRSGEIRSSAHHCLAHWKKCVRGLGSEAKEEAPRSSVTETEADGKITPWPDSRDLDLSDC
G-protein coupled receptor 55, sequence (Q9Y2T6 whole entry): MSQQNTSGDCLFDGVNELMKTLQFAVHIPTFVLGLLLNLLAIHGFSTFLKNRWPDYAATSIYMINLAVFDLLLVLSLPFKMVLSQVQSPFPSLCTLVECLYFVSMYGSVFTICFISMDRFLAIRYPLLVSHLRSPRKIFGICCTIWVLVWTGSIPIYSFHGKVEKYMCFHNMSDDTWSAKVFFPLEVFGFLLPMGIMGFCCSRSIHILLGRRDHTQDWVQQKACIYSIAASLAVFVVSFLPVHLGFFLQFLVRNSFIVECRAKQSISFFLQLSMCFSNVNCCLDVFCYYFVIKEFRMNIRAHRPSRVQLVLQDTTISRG
Phosphoethanolamine/phosphocholine phosphatase, sequence (Q8TCT1 whole entry): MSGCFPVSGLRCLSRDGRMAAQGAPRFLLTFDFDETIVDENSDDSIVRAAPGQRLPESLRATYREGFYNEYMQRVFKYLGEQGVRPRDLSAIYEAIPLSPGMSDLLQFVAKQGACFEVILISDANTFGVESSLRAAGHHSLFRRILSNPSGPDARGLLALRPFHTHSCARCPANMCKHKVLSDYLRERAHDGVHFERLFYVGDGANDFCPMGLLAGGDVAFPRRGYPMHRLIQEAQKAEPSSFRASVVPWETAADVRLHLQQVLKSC
Mitochondrial peptide methionine sulfoxide reductase, sequence (P54149 whole entry): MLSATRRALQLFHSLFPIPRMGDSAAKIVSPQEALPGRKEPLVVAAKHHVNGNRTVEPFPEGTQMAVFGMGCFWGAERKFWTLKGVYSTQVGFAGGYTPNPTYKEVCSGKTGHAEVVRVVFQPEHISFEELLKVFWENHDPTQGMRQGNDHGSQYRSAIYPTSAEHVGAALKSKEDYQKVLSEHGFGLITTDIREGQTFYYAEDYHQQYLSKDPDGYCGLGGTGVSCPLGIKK
NACHT, LRR and PYD domains-containing protein 3, sequence (Q96P20 whole entry, the tested form may be a part): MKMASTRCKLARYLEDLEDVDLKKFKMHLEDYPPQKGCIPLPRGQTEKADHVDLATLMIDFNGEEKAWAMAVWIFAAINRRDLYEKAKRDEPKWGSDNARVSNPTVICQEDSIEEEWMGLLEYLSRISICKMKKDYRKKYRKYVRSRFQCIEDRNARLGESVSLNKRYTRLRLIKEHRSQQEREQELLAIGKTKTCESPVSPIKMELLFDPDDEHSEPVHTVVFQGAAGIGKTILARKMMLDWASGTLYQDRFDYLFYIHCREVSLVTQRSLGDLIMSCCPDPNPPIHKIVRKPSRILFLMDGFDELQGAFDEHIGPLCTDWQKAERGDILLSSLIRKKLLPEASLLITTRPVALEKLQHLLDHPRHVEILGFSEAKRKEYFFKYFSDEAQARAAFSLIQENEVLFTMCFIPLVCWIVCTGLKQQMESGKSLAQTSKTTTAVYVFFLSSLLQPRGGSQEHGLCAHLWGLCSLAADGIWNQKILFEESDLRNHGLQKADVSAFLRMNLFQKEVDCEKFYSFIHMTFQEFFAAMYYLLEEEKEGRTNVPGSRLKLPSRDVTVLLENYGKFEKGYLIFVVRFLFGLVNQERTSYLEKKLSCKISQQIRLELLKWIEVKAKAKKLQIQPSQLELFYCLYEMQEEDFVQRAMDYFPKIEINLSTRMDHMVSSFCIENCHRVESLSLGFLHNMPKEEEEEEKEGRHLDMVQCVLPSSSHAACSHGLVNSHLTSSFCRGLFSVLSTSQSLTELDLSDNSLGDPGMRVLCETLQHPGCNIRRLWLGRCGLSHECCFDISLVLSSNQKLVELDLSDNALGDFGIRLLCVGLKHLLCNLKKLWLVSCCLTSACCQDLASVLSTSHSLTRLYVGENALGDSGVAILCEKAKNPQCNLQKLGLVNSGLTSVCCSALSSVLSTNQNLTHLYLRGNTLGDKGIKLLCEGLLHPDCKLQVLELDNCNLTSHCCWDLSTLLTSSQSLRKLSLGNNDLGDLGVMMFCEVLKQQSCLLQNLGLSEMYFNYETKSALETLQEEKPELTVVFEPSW

Compound: CCN(CC)c1ccc2nc3ccccc3[n+](CC)c2c1
- EC50 (BJ [1]): 23.6 µM (active)
- EC50 [2]: 9.49 µM (active)
- AC50 (INS1): 0.602 µM (active)
- IC50 [3]: 48.8 µM (inactive)
- EC50 (BJ [4]): > 150 µM (inconclusive)
- EC50 [5]: 96.1 µM (active)
- IC50 [6]: 14.3 µM (active)
- EC50 (BJ [7]): 16.9 µM (active)
- EC50 [8]: 11.2 µM (active)
- EC50 [9]: 0.686 µM (active)
- EC50 [10]: 19.2 µM (inactive)
- EC50 [11]: 25.9 µM (active)
- CC50 [12]: > 40 µM (active)
- EC50 [13]: 15.2 µM (active)

Compound: Cc1ccc(C)c(-n2sc3ccccc3c2=O)c1
- IC50 [14]: 5.04 µM (inactive)
- IC50 [15]: 5.51 µM (active)
- IC50 (Phosphomannomutase 2): 17.9 µM (active)
- IC50 [16]: > 100 µM (inactive)
- IC50 [17]: 1.67 µM (active)

Compound: CCN(CC)c1ccc(NC(=O)c2cc(OC)cc(OC)c2)c(C)c1
- IC50 [3]: > 80 µM (inactive)
- IC50 (J774.A1): 0.13 µM (active)

Compound: O=C(Nc1cc(S(=O)(=O)N2CCOCC2)ccc1Cl)c1cc2c(s1)CCCC2
- IC50 (Cannabinoid receptor 1 [18]): > 32 µM (inactive)
- EC50 (Cannabinoid receptor 1 [19]): 7.87 µM (active)
- IC50 (Cannabinoid receptor 2 [20]): > 32 µM (inactive)
- IC50 [21]: > 32 µM (inactive)
- EC50 [22]: 0.779 µM (active)
- EC50 (Cannabinoid receptor 2 [23]): > 32 µM (inactive)
- EC50 [24]: > 32 µM (inactive)

Compound: CS(=O)(=O)/C(C#N)=C/c1ccc([N+](=O)[O-])cc1
- IC50 [25]: > 20 µM (inactive)
- IC50 [26]: > 20 µM (not active)
